This is an account of results in the NIST ThermoML archive (doi:10.1016/j.jct.2019.02.019).

For data set [1] the following is noted: 101 kPa, Liquid; for viscosity: Capillary tube (Ostwald / Ubbelohde) method; for mass density: Vibrating tube method.
The nature of data set [2]: xn = mol fraction of the nth substance listed. The settings on record: 101 kPa, Liquid, x2 = 0; for viscosity: Capillary tube (Ostwald / Ubbelohde) method; for mass density: Vibrating tube method.

± gives the expanded uncertainty stated by the source.

As to `NCCO` [2-aminoethan-1-ol], the viscosity in data set [1] (293.15 K) is 23.4 ± 0.95 mPa·s; in data set [1] (303.15 K), 14.71 ± 0.6 mPa·s; in data set [1] (313.15 K), 9.77 ± 0.4 mPa·s; in data set [1] (323.15 K) it was 6.83 ± 0.28 mPa·s. Moreover, the mass density is 1016.3 ± 1 kg/m3 in data set [1] (293.15 K), 1008.02 ± 1 kg/m3 in data set [1] (303.15 K), 999.98 ± 1 kg/m3 in data set [1] (313.15 K) and 991.97 ± 1 kg/m3 in data set [1] (323.15 K).
Turning to `CN(CCO)CCO` [N-methyldiethanolamine], the viscosity in data set [1] (293.15 K) came to 103.04 ± 4.3 mPa·s; in data set [1] (303.15 K), 57.28 ± 2.3 mPa·s; in data set [1] (313.15 K), 33.94 ± 1.4 mPa·s; in data set [1] (323.15 K), 21.31 ± 0.87 mPa·s. The mass density in data set [1] (293.15 K) was 1040.5 ± 1 kg/m3; in data set [1] (303.15 K), 1032.6 ± 1 kg/m3; in data set [1] (313.15 K) it was 1024.76 ± 1 kg/m3; in data set [1] (323.15 K), 1017.12 ± 1 kg/m3.
For `CCO` [ethanol], the viscosity in data set [1] (293.15 K) was 1.17 ± 0.05 mPa·s; in data set [1] (303.15 K), 0.97 ± 0.04 mPa·s; in data set [1] (313.15 K), 0.81 ± 0.03 mPa·s; in data set [1] (323.15 K) it was 0.69 ± 0.03 mPa·s. The mass density in data set [1] (293.15 K) was 788.88 ± 1 kg/m3; in data set [1] (303.15 K), 781.69 ± 1 kg/m3; in data set [1] (313.15 K), 772.3 ± 1 kg/m3; in data set [1] (323.15 K) it was 765.29 ± 1 kg/m3.
On to `NCCO` [2-aminoethan-1-ol] + CN(CCO)CCO, for which the viscosity is listed as 23.4 ± 0.95 mPa·s in data set [2] (293.15 K), 14.71 ± 0.6 mPa·s in data set [2] (303.15 K), 9.77 ± 0.4 mPa·s in data set [2] (313.15 K) and 6.83 ± 0.28 mPa·s in data set [2] (323.15 K). Moreover, the mass density in data set [2] (293.15 K) was 1016.3 ± 1 kg/m3; in data set [2] (303.15 K) it was 1008.02 ± 1 kg/m3; in data set [2] (313.15 K), 999.98 ± 1 kg/m3; in data set [2] (323.15 K), 991.97 ± 1 kg/m3.
Regarding `CCO` [ethanol] + NCCO, the viscosity in data set [2] (293.15 K) turned out to be 1.17 ± 0.05 mPa·s; in data set [2] (303.15 K), 0.97 ± 0.04 mPa·s; in data set [2] (313.15 K) it was 0.81 ± 0.03 mPa·s; in data set [2] (323.15 K) it was 0.69 ± 0.03 mPa·s. Moreover, the mass density amounted to 788.88 ± 1 kg/m3 in data set [2] (293.15 K), 781.69 ± 1 kg/m3 in data set [2] (303.15 K), 772.3 ± 1 kg/m3 in data set [2] (313.15 K) and 765.29 ± 1 kg/m3 in data set [2] (323.15 K).
Turning to `CCO` [ethanol] + CN(CCO)CCO, the viscosity in data set [2] (293.15 K) was 1.17 ± 0.05 mPa·s; in data set [2] (303.15 K) it was 0.97 ± 0.04 mPa·s; in data set [2] (313.15 K), 0.81 ± 0.03 mPa·s; in data set [2] (323.15 K), 0.69 ± 0.03 mPa·s. The mass density in data set [2] (293.15 K) stood at 788.88 ± 1 kg/m3; in data set [2] (303.15 K), 781.69 ± 1 kg/m3; in data set [2] (313.15 K), 772.3 ± 1 kg/m3; in data set [2] (323.15 K), 765.29 ± 1 kg/m3.

One may read the viscosity as the resistance of a fluid to flow. As a reminder, the mass density is mass per unit of volume.
